Results on 14 compounds are retold here after patent US6566355B1 (Hoffmann-La Roche Inc., priority 1991, dated 2003).

Counter-ions that a name gives are not always drawn.

T1 sequence (P05193 21-381): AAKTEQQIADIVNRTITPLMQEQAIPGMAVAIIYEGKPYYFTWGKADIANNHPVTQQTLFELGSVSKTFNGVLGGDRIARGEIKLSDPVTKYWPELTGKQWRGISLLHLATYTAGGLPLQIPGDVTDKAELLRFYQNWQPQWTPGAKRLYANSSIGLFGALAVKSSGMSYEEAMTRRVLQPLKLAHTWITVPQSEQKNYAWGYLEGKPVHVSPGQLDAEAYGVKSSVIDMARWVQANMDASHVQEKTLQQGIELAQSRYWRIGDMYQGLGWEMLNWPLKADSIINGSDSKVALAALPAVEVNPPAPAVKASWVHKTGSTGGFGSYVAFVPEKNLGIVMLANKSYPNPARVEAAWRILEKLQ

The first assay has as its target T1, β-lactamase (Citrobacter freundii, UniProt P05193).
T1 construct: Various β-lactamases can be isolated from penicillin- or cephalosporin-resistant bacterial strains such as; endogenous in cells; host or cells: Citrobacter freundii 1203 (enzyme purified from the crude cell extract, after ampicillin induction when necessary)
Description: biochemical.
Conditions: not given
Here is the method:
A. Isolation of the β-lactamases
Various β-lactamases can be isolated from penicillin- or cephalosporin-resistant bacterial strains such as Klebsiella pneumoniae NCTC 418, Proteus vulgaris 1028, Bacillus licheniformis 749/C, Escherichia coli SN01 and Citrobacter freundii 1203. For this purpose, the corresponding strains are cultivated in Tryptic Soy Broth (Difco) and harvested by centrifugation in the last logarithmic growth phase (when necessary 50-100 mg/l of ampicillin are added to the medium towards the end of the log-phase in order to induce the β-lactamase). The thus-obtained bacterial mass is treated with 20 mM Tris-HCl buffer (pH 7.0); the cells are broken open with a French press while cooling. The mixture is centrifuged (20,000 r/min.) for 20-30 minutes and a clear crude extract is obtained.
B. Determination of the β-lactamase activity
The determination of the activity of the isolated β-lactamases can be carried out according to the method of O'Callaghan, C. H. et al. [Antimicr. Ag. Chemother., 1, 283-288 (1972)] using the chromogenic cephalosporin nitrocefin (87/312 from Glaxo). The requisite test batch contains per ml of water: 50 mM phosphate buffer (pH 7.0), 0.1 mM nitrocefin and sufficient enzyme (β-lactamase) to achieve a ΔA/min. of about 0.1. The cleavage of the substrate, which is accompanied by a change in colour, is effected at 37° C. and is followed quantitatively at 482 nm using a spectral photometer.
C. Determination of the β-lactamase-inhibiting activity of the compounds of general formula I
The above-described cleavage of the chromogenic substrate by β-lactamases (test B.) can be inhibited by the addition of compounds of general formula I (inhibitors). […] As a measurement for the affinity of the particular tested inhibitor to the β-lactamase, which is a measurement of the strength of the inhibitor, there serves that concentration which inhibits by 50% (IC 50 in nM) the cleavage of the substrate (nitrocefin) effected under the above test conditions (test B) in the absence of an inhibitor. […] The determination of the IC50 was effected by means of a graph.
(Test organism: Citrobacter freundii)
`O=C(NCC(=O)N1CC[C@@H]2[C@H]1C(=O)N2S(=O)(=O)O)OCc1ccccc1` [4(g), Benzyl[[[(1S,5R)-7-oxo-6-sulpho-2,6-diazabicyclo[3.2.0]-hept-2-yl]carbonyl]methyl]carbamate] displayed an IC50 of 390 nM.

Turning to `O=C(NC1CCC1)N1CC[C@@H]2[C@H]1C(=O)N2S(=O)(=O)O` [17(h), (1S,5R)-2-Cyclobutylcarbamoyl)-7-oxo-2,6-diazabicyclo[3.2.0]heptane-6-sulphonic acid sodium salt], the IC50 came to 145 nM.

The compound `O=C(NC1CC1)N1CC[C@@H]2[C@H]1C(=O)N2S(=O)(=O)O` [17(i), (1S,5R)-2-Cyclopropylcarbamoyl)-7-oxo-2,6-diazabicyclo[3.2.0]heptane-6-sulphonic acid sodium salt] registered an IC50 of 245 nM.

For `O=C(NCc1cccs1)N1CC[C@@H]2[C@H]1C(=O)N2S(=O)(=O)O` [17(p), (1S,5R)-2-(2-Thien-2-ylmethylcarbamoyl)-7-oxo-2,6-diazabicyclo[3.2.0]heptane-6-sulphonic acid sodium salt], the IC50 is 383 nM.

The assay is the same for the next values; noted with them: IC 50 nM, isolated β-lactamase of Citrobacter freundii; substrate nitrocefin 0.1 mM; 15 minutes pre-incubation with inhibitor; 37° C., pH 7.0.
In the case of `O=C(CNc1ccc2c(C(F)(F)F)cc(=O)oc2c1)N1CC[C@@H]2[C@H]1C(=O)N2S(=O)(=O)O` [5(n), (1S,5R)-2-[N-[2-Oxo-4-(trifluoromethyl)-2H-1-benzopyran-7-yl]glycyl]-7-oxo-2,6-diazabicyclo[3.2.0]heptane-6-sulphonic acid sodium salt], the IC50 was 67 nM.

Compound `O=C(/C=C/c1ccc(O)cc1)N1CC[C@@H]2[C@H]1C(=O)N2S(=O)(=O)O` [6(t), (1S,5R)-(E)-2-[3-(4-Hydroxy-phenyl)acryloyl]-7-oxo-2,6-diazabicyclo[3.2.0]heptane-6-sulphonic acid sodium salt] yielded an IC50 of 12 nM.

`Nc1nnc(SCC(=O)Nc2nnc(SCC(=O)N3CC[C@@H]4[C@H]3C(=O)N4S(=O)(=O)O)s2)s1` [6(w), (1S,5R)-2-[5-(5-Amino-1,3,4-thiadiazol-2-ylsulfanylacetylamino)-1,3,4-thiadiazol-2-ylsulfanylacetyl]-7-oxo-2,6-diazabicyclo[3.2.0]heptane-6-sulfonic acid sodium salt] had an IC50 of 22 nM.

Take `COC(=O)/C=C1\CN(C(=O)OCc2ccccc2)[C@@H]2C(=O)N(S(=O)(=O)O)[C@H]12` [14(a), (1S,5R)-(E)-4-Methoxycarbonylmethylene-7-oxo-6-sulpho-2,6-diazabicyclo[3.2.0]heptane-2-carboxylic acid benzyl ester sodium salt]: the IC50 was determined as 32 nM.

In turn, `NC(=O)/C=C1\CN(C(=O)OCc2ccccc2)[C@@H]2C(=O)N(S(=O)(=O)O)[C@H]12` [14(b), (1S,5R)(E)-2-Benzyloxycarbonyl-4-carbamoylmethylene-7-oxo-2,6-diazabicyclo[3.2.0]heptane-6-sulphonic acid sodium salt] had an IC50 of 65 nM.

`NC(=O)/C=C1/CN(C(=O)OCc2ccccc2)[C@@H]2C(=O)N(S(=O)(=O)O)[C@H]12` [14(c), (1S,5R)(Z)-2-Benzyloxycarbonyl-4-carbamoylmethylene-7-oxo-2,6-diazabicyclo[3.2.0]heptane-6-sulphonic acid sodium salt] returned an IC50 of 826 nM.

`O=C(OCc1ccccc1)N1C[C@H](F)[C@@H]2[C@H]1C(=O)N2S(=O)(=O)O` [16(a), (1S,4S,5S)-4-Fluoro-7-oxo-6-sulpho-2,6-diazabicyclo[3.2.0]heptane-2-carboxylic acid benzyl ester sodium salt] showed an IC50 of 14 nM.

With `O=C(OCc1ccccc1)N1C[C@@H](Cl)[C@@H]2[C@H]1C(=O)N2S(=O)(=O)O` [16(b), (1S,4R,5S)-2-Benzyloxycarbonyl-4-chloro-7-oxo-2,6-diazabicyclo[3.2.0]heptane-6-sulphonic acid sodium salt], the IC50 came out at 334 nM.

The same assay, now with this note: isolated β-lactamase of Citrobacter freundii; substrate nitrocefin 0.1 mM; 15 minutes pre-incubation with inhibitor; 37° C., pH 7.0; read-out: IC 50 nM.
With `O=C(c1cc2ccccc2[nH]1)N1CC[C@@H]2[C@H]1C(=O)N2S(=O)(=O)O` (racemic) [6(j)], the IC50 worked out at 280 nM.

Take `CC(C)(C)OC(=O)N1CC[C@@H]2[C@H]1C(=O)N2S(=O)(=O)O` [1(b), sodium salt]: the IC50 is 225 nM.
